The source of these data is patent US20160143884A1, “USE OF TETRAHYDROINDAZOLYLBENZAMIDE AND TETRAHYDROINDOLYLBENZAMIDE DERIVATIVES FOR THE TREATMENT OF HUMAN IMMUNODEFICIENCY VIRUS (HIV) AND ACQUIRED IMMUNE DEFICIENCY SYNDROME (AIDS)” (Esanex, Inc., priority 2014, published 2016).

In one data set the test system is integration. The note with it: Vozzolo et al., J. Biol. Chem. 2010; cited from earlier work.
In the next data set the test system is HIV reactivation. Conditions: Anderson et al., PNAS 2014; cited from earlier work.
The subject of the next data set is HIV-1. The experiment in a line: HIV virus inhibition, p24 in supernatant by ELISA. The data set is classed as cell-based. Conditions: for EC50: Human immunodeficiency virus 1, HIV-1, p24 ELISA of supernatant. As for the experimental part: (§1) Several additional compounds were also tested for HIV virus inhibition, and the results are show in Table 5. P24 concentration in the supernatant was measured using a commercial ELISA assay. Toxicity was assessed by counting live cells (trypan blue exclusion)
(In an ELISA, binding on a coated surface is turned into a signal by an enzyme label.)

Data set [1] in a line: Toxicity by counting live cells (trypan blue exclusion). Conditions: live cell count, read-out: Cytotoxicity TC50. The data set is classed as cell-based. As for the experimental part: as §1
A short description of data set [2]: Cell viability (CellTiter 96 AQueous One) in HepG2 2.2.15. The data set is classed as cell-based. Conditions: human, HepG2-2.2.15 cells, read-out: Cytotoxicity TC50. As to the method:
The anti-HBV assay employed real-time qPCR (TaqMan) to directly measure extracellular HBV DNA copy number. HepG2-2.2.15 cells were plated in 96-well microtiter plates. Only the interior wells were utilized to reduce “edge effects” observed during cell culture; the exterior wells were filled with complete medium to help minimize sample evaporation. After 16-24 hours the confluent monolayer of HepG2-2.2.15 cells was washed and the medium replaced with complete medium containing various concentrations of a test compound in triplicate. 3TC was used as positive control, while media alone was added to cells as negative control (virus control, VC). Three days later the culture medium was replaced with fresh medium containing the appropriately diluted drug. Six days following the initial administration of the test compound, the cell culture supernatant collected, treated with pronase and then used in a real-time quantitative TaqMan qPCR assay. The PCR-amplified HBV DNA was detected in real-time by monitoring increases in fluorescence signals that result from the exonucleolytic degradation of a quenched fluorescent probe molecule that hybridizes to the amplified HBV DNA. […] Antiviral activity was calculated from the reduction in HBV DNA levels (IC50). […] The therapeutic index (TI) was calculated as TC50/IC50.

The next data set relates to Hepatitis B Virus (HBV). The experiment in a line: Anti-HBV assay, real-time qPCR of extracellular HBV DNA in HepG2 2.2.15. It is filed as cell-based. As to the method: The anti-HBV assay employed real-time qPCR (TaqMan) to directly measure extracellular HBV DNA copy number. HepG2-2.2.15 cells were plated in 96-well microtiter plates. Only the interior wells were utilized to reduce “edge effects” observed during cell culture; the exterior wells were filled with complete medium to help minimize sample evaporation. After 16-24 hours the confluent monolayer of HepG2-2.2.15 cells was washed and the medium replaced with complete medium containing various concentrations of a test compound in triplicate. 3TC was used as positive control, while media alone was added to cells as negative control (virus control, VC). Three days later the culture medium was replaced with fresh medium containing the appropriately diluted drug. Six days following the initial administration of the test compound, the cell culture supernatant collected, treated with pronase and then used in a real-time quantitative TaqMan qPCR assay. The PCR-amplified HBV DNA was detected in real-time by monitoring increases in fluorescence signals that result from the exonucleolytic degradation of a quenched fluorescent probe molecule that hybridizes to the amplified HBV DNA. For each PCR amplification, a standard curve was simultaneously generated using dilutions of purified HBV DNA. Antiviral activity was calculated from the reduction in HBV DNA levels (IC50). CellTiter 96® AQueous One Solution Cell Proliferation Assay kit (Promega) was employed to measure cell viability which was used to calculate cytotoxicity (TC50). The therapeutic index (TI) was calculated as TC50/IC50.

Bounds are passed on as bounds.

In the case of `C=CCNC1=C2C[C@@H](C)C[C@H](OC)[C@H](O)[C@@H](C)/C=C(\C)[C@H](OC(N)=O)[C@@H](OC)/C=C\C=C(/C)C(=O)NC(=CC1=O)C2=O` [17-allylamino-17-demethoxy-geldanamycin], the Effect on integration result in the data set with integration is reported as “no effect”.
As for `CCNC(=O)c1noc(-c2cc(C(C)C)c(O)cc2O)c1-c1ccc(CN2CCOCC2)cc1` [AUY922], the “Suppression of HIV reactivation” value in the data set with HIV reactivation is “almost completely suppressed”.
The term EC50 denotes the concentration giving half of the maximal effect. A lower EC50 goes with greater potency. On to `Cc1nn(-c2ccc(C(N)=O)c(NC3CCC(O)CC3)c2)c2c1C(=O)CC(C)(C)C2` (stereo not drawn) [Compound 1, 2-((4-hydroxycyclohexyl)amino)-4-(3,6,6-trimethyl-4-oxo-4,5,6,7-tetrahydro-1H-indazol-1-yl)benzamide], for which, in the data set with HIV-1, the “Selectivity Index TI (TC50/EC50)” value is recorded as 54 and the EC50 is 8.1 nM. Moreover, the CC50 in data set [1] turned out to be 436 nM.
For `Cc1nn(-c2ccc(C(N)=O)c(NCCO)c2)c2c1C(=O)CC(C)(C)C2` [Compound 2, 2-((2-hydroxyethyl)amino)-4-(3,6,6-trimethyl-4-oxo-4,5,6,7-tetrahydro-1H-indazol-1-yl)benzamide], in that order: 12, 52 nM and 617 nM.
With `COCCNc1cc(-n2nc(C)c3c2CC(C)(C)CC3=O)ccc1C(N)=O` [Compound 3, 2-((2-methoxyethyl)amino)-4-(3,6,6-trimethyl-4-oxo-4,5,6,7-tetrahydro-1H-indazol-1-yl)benzamide], in the data set on HIV-1, the “Selectivity Index TI (TC50/EC50)” value is on record as 901 and the response was half-maximal at 1.3 nM (EC50). For the same compound, in data set [1], the CC50 was determined as 1160 nM.
A word on the IC50: it is the concentration that gives 50% inhibition. In the case of `Nc1ccn([C@@H]2CS[C@H](CO)O2)c(=O)n1` [Compound 3TC, 2′,3′-dideoxy-3′-thiacytidine, reference compound], in data set [2], the CC50 at 6 days was greater than 500 nM. Moreover, in the data set with Hepatitis B Virus (HBV) (HBV in HepG2 2.2.15), the “Selectivity Index TI (TC50/IC50)” value was greater than 14.0. Besides, the IC50 with Hepatitis B Virus (HBV) (Hepatitis B virus, 144 h, HBV in HepG2 2.2.15, six days, read-out: Antiviral Activity IC50 (reduction in HBV DNA levels)) amounted to 35.6 nM.
With `CCOCCNc1cc(-n2nc(C)c3c2CC(C)(C)CC3=O)ccc1C(N)=O` [Compound 4, 2-((2-ethoxyethyl)amino)-4-(3,6,6-trimethyl-4-oxo-4,5,6,7-tetrahydro-1H-indazol-1-yl)benzamide], in the data set with HIV-1, the “Selectivity Index TI (TC50/EC50)” value stood at 24 and the EC50 was 89 nM. Also, in data set [1], the CC50 came out at 2170 nM.
The compound `Cc1nn(-c2ccc(C(N)=O)c(NCCOCCOCCN)c2)c2c1C(=O)CC(C)(C)C2` [Compound 5, 2-((2-(2-(2-aminoethoxy)ethoxy)ethyl)amino)-4-(3,6,6-trimethyl-4-oxo-4,5,6,7-tetrahydro-1H-indazol-1-yl)benzamide] showed an EC50 with HIV-1 of 2160 nM.
Still for that read-out and setting: next, `Cc1nn(-c2ccc(C(N)=O)c(NCCCO)c2)c2c1C(=O)CC(C)(C)C2` [Compound 6, 2-((3-hydroxypropyl)amino)-4-(3,6,6-trimethyl-4-oxo-4,5,6,7-tetrahydro-1H-indazol-1-yl)benzamide]: 32 nM; `COCCCNc1cc(-n2nc(C)c3c2CC(C)(C)CC3=O)ccc1C(N)=O` [Compound 7, 2-((3-methoxypropyl)amino)-4-(3,6,6-trimethyl-4-oxo-4,5,6,7-tetrahydro-1H-indazol-1-yl)benzamide]: 81 nM.
Same read-out and setting: next, `CCOCCCNc1cc(-n2nc(C)c3c2CC(C)(C)CC3=O)ccc1C(N)=O` [Compound 8, 2-((3-ethoxypropyl)amino)-4-(3,6,6-trimethyl-4-oxo-4,5,6,7-tetrahydro-1H-indazol-1-yl)benzamide]: 42 nM.
